Data on one compound can be found in patent US20260174858A1, “TARGETING THE m6A MRNA DEMETHYLASE FTO” (University of Virginia Patent Foundation, priority 2022, published 2026).

For one series, the system named is macrophage. The experiment in a line: mRNA abundance of other pro-angiogenic factors in macrophages (RT-PCR). In kind it is cell-based, mouse. The following applies: FTO inhibition. The procedure:
Total RNA was extracted from mouse BMDMs or eye tissues with TRIzol™ Reagent (Thermo Fisher Scientific, 15596018, USA) and quantified by using a NanoDrop 2000 spectrophotometer (Thermo-Fisher Scientific, USA). Reverse transcription was performed using the QuantiTect Reverse Transcription kit (205313, QIAGEN). Target genes were amplified by real-time quantitative polymerase chain reaction (PCR) (Applied Biosystems, 7900 HT Fast Real-Time PCR system) with Power SYBR Green Master Mix. Relative gene expression was determined by the 2^−ΔΔCt method, and 18S rRNA or GAPDH (glyceraldehyde-3-phosphate dehydrogenase) was used as an internal control.

Series [1] concerns Wild type C57BL/6J mice. The experiment in a line: Laser-induced choroidal neovascularization (CNV), CNV volume and F4/80 staining. The conditions noted are these: for Neovascularization (CNV volume): FTOi i.p. pretreatment plus 25 ng intravitreous after laser injury, day 7, isolectin B4 staining. Format: in vivo, mouse. The procedure:
Laser photocoagulation (532 nm, 180 mW, 100 ms, 75 μm) (OcuLight GL; IRIDEX Corp., Mountain View, CA, USA) was performed bilaterally (volume studies: 4 spots per eye; RNA analyses: 10 spots per eye) in 6- to 8-week-old mice on day 0 to induce CNV as previously described 1-3. For drug treatment, the mice pretreated with FTO inhibitor (FB23-2, SML2694, Sigma) or vehicle (DMSO) through intraperitoneal injection (i.p, 2 mg/kg). Then, the mice were subjected to laser photocoagulation followed by intravitreous injection of the FTO inhibitor (25 ng/0.5 μl per eye) or vehicle. At day 3 after laser injury, the mice were administered the FTO inhibitor (2 mg/kg) or vehicle via intraperitoneal injection. At day 7, the eyes were collected for fluorescein labeled-isolectin B4 and F4/80 staining and for neovascular volume quantification.
RPE flat mounts were prepared as previously described 5. Briefly, at day 3 or 7 after laser injury, mice eyes were enucleated and dissected as retina and sclera-RPE-choroid complexes. The RPE-choroid sheets were immediately fixed in 4% paraformaldehyde (Electron Microscopy Sciences, 50-980-495, USA) in phosphate-buffered saline for 1 hour. […] As described previously^1, CNV volumes were determined by labeling with fluorescein labeled Griffonia Simplicifolia Lectin I (GSL I) isolectin B4 (Vector Laboratories, FL-1201, USA). […] FTO expression was visualized by immunolabeling with anti-FTO antibody (AdipoGen Life Sciences, AG-20A-0083, USA), and the specificity of labeling was assessed using isotype serum immunolabeling. […] Fluorescence images were captured by Nikon AIR laser scanning confocal microscope.
Laser photocoagulation (532 nm, 180 mW, 100 ms, 75 μm) (OcuLight GL; IRIDEX Corp., Mountain View, CA, USA) was performed bilaterally (volume studies: four spots per eye; protein analyses: 20 spots per eye) in 6- to 8-week-old male mice on day 0 to induce CNV in a masked fashion. […] Choroidal neovascularization was visualized using a blue argon laser wavelength (488 nm) and a scanning laser confocal microscope and quantified using Image J software.

In series [2] the test system is Wild type C57BL/6J mice. Briefly: Serum cytokines release in the LPS model of sepsis (ELISA). In kind it is in vivo, mouse. The conditions noted are these: FTOi 20 mg/kg i.p., 10 mg/kg LPS, serum at 10 hours after LPS. The procedure: (§1) Secreted IL-6 in the BMDMs medium or serum IL-6, TNF-alpha, and IL-1alpha were detected by ELISA (Mouse IL-1 alpha/IL-1F1 DuoSet, R&D Systems, DY400; Mouse IL-6 DuoSet, R&D Systems, DY406; Mouse TNF-alpha DuoSet, R&D Systems, DY410) according to the manufacturer's instructions.
(§2) To induced septic shock model, male or female C57BL/6 mice (6 to 10 weeks old) were primed with 10 mg/kg poly(I:C) via intraperitoneal injection. 6 hours later, primed mice were injected with 10 mg/kg LPS and monitored three time daily for a total 5 days. For FTO inhibitor treatment, Wild type C57BL/6J mice were pretreated with 20 mg/kg FB23-2 for 16 hours before sepsis induction. Next day, 20 mg/kg FB23-2 together with 10 mg/kg poly(I:C) were intraperitoneally injected, following with LPS challenge at 6 hours after poly(I:C) priming.

The nature of series [3]: Cell viability under FTO inhibition. In kind it is cell-based.
Another series concerns Wild type BMDMs. Briefly: LPS-induced IL-6 release on BMDMs (ELISA). In kind it is cell-based, mouse. The following applies: FB23-2 20 uM pre-treatment 1 hour, then 250 ng/ml LPS 6 hours, p<0.0001. The procedure:
Primary WT or mutant mouse bone marrow derived macrophages (BMDMs) were isolated as previously described (4). BMDMs were cultured in IMDM (Gibco) basal medium containing 10% fetal bovine serum (FBS), 30% L929 supernatants, nonessential amino acids, sodium pyruvate, 2-mercaptoethanol, and antibiotics. THP-1 cells were cultured in RPMI 1640 medium with 10% FBS and antibiotics. Human RPE cells were isolated as previously described and cultured in DMEM medium with 10% FBS and antibiotics. All cells were maintained at 37° C. in a 5% CO2 environment.
as §1

The subject of series [4] is Wild type C57BL/6J mice. Briefly: LPS model of septic shock, survival. Format: in vivo, mouse. The following applies: FTOi 20 mg/kg i.p. 16 hours before, 10 mg/kg LPS challenge; log-rank p<0.05 vs vehicle. The procedure: as §2

Turning to `Cc1noc(C)c1-c1cc(Cl)c(Nc2ccccc2C(=O)NO)c(Cl)c1` [FB23-2], in the series with macrophage, the “mRNA abundance of other pro-angiogenic factors (Plgf, Pdgfa)” value is given as “did not significantly alter the mRNA abundance”. Besides, the “Neovascularization (CNV volume)” value with Wild type C57BL/6J mice [1] was “inhibits angiogenesis”; with Wild type C57BL/6J mice [1] (listed as selective inhibitor) it was “significant reduction in neovascularization”. The F4/80 macrophage recruitment result in the series on Wild type C57BL/6J mice [1] (laser-induced CNV, FTO inhibitor in vivo, F4/80 staining) is “not in F4/80 macrophage recruitment”. The “Serum cytokines release (IL-6, TNF-α, IL-1α)” value in the series on Wild type C57BL/6J mice [2] is given as “impairs serum cytokines release”. Moreover, the “Adverse effects on cell viability” value in series [3] was “minimal adverse effects on cell viability”. Moreover, the “LPS-induced IL-6 release” value with Wild type BMDMs is “reduces LPS-induced IL-6 release”. Further, the “Survival (mice death)” value with Wild type C57BL/6J mice [4] is given as “rescues the mice death”.
